Like-named read-outs stand apart in the source and are kept apart here.
Experiment: Ocular tissue concentrations (aqueous humor, vitreous humor, iris, retina, choroid, cornea) after topical ocular, subcutaneous and intravitreal administration
Assay type: in vivo, New Zealand White rabbits
Conditions: New Zealand White, rabbit; for concentration at 2 h / concentration at 4 h / concentration at 0.5 hr / concentration at 1 h: subcutaneous, 5 mg/kg/dose, subcutaneous 5 mg/kg/dose; for concentration at 6 h / concentration at 24 h / concentration at 48 h / concentration at 72 h: other: intravitreal, 2.5 mg/eye
Procedure: To measure the concentration of Compound 1 in plasma and ocular tissues following topical ocular, subcutaneous, and intravitreal administration, New Zealand White rabbits were administered Compound 1, and plasma and ocular samples were collected at pre-determined time points. Compound 1 formulations were prepared fresh on each day of dosing.
Ocular tissue samples from both eyes of each animal were collected and weights were recorded. Plasma and ocular tissue sample concentrations of Compound 1 were determined by LC-MS/MS.
New Zealand White rabbits weighing 2.5 to 3.5 kg were used on this study. Rabbits were housed one per cage. Animals were not fasted and only healthy animals with no ocular illness were used. Two rabbits per group were sacrificed at each of four ocular tissue sampling time points for a total of eight rabbits per group.
Animals were anesthetized for ocular (topical) and intravitreal dosing following the 12IA7 IACUC protocol. Each rabbit received a bolus dose of test formulation either via topical ocular administration 3 times daily on Days 1 and 2 (at 0, 6, and 12 hours), and once on Day 3 (at 0 hours) into both eyes; via intravitreal administration into both eyes once on Day 1 (at 0 hours); or via subcutaneous administration 2 times daily on Days 1 and 2 (at 0 and 8 hours) and once daily on Day 3 (at 0 hours). Doses were given within an approximately 1 hour window each day where applicable.
On Day 1, for intravitreal administration, or on Day 3, for topical ocular and subcutaneous administration, at the appropriate ocular tissue collection time points, animals were euthanized and both eyes were enucleated immediately. Following enucleation, each eye was rinsed with phosphate-buffered saline. Ocular tissue samples from both eyes of each animal were collected at predetermined time points and weights were recorded. All the samples were frozen immediately on dry ice, and stored at −60° C. to −80° C. pending bioanalysis.
An LC-MS/MS method was developed for the determination of Compound 1 in rabbit aqueous tissues (plasma, aqueous and vitreous humor) and solid ocular tissue samples. A pre-study standard curve was analyzed to determine the specificity, range, and lower limit of quantitation of the method. Plasma and tissue homogenate study samples were extracted and analyzed. All the samples were treated identically to the standards.
One eight-point standard curve was used in each analytical batch. To be accepted, each batch must have had at least five of eight standards with accuracy within ±20% of nominal, except at the lower limit of quantification (LLOQ), where ±25% was acceptable.
Concentration versus time data is plotted in FIGS. 3-16. All data are expressed as ng/g of the free drug. Samples that were below the limit of quantitation (0.2 ng/mL) were not used in the calculation of averages.

[1] = iris, TABLE 16: Iris, OD, free acid, Group 3, read-out: Iris Conc. (ng/g) OD
[2] = iris, TABLE 16: Iris, OS, free acid, Group 3, read-out: Iris Conc. (ng/g) OS
[3] = iris, TABLE 16: Iris, free acid, Group 3, read-out: Iris Average
[4] = retina homogenate, Retina homogenate, left eye, intravitreal 2.5 mg/eye (group 5), individual animals, read-out: Conc. (ng/mL) OS
[5] = retina homogenate, Retina homogenate, OD, sodium salt, intravitreal 2.5 mg/eye, Group 4, read-out: Retina Conc. (ng/mL) OD
[6] = retina homogenate, Retina homogenate, right eye, intravitreal 2.5 mg/eye (group 5), individual animals, read-out: Conc. (ng/mL) OD
[7] = retina homogenate, Retina homogenate, OS, sodium salt, intravitreal 2.5 mg/eye, Group 4, read-out: Retina Conc. (ng/mL) OS
[8] = retina homogenate, Retina homogenate, OD, sodium salt, Group 2, read-out: Retina Conc. (ng/mL) OD
[9] = retina homogenate, Retina homogenate, OS, sodium salt, Group 2, read-out: Retina Conc. (ng/mL) OS
[10] = retina homogenate, Retina homogenate, OD, free acid, Group 3, read-out: Retina Conc. (ng/mL) OD
[11] = retina homogenate, TABLE 16: Retina homogenate, OD, free acid, Group 3, read-out: Retina Conc. (ng/mL) OD
[12] = retina, Retina, OD, sodium salt, intravitreal 2.5 mg/eye, Group 4, read-out: Retina Conc. (ng/g) OD
[13] = retina, Retina, sodium salt, intravitreal 2.5 mg/eye, Group 4, read-out: Retina Avg.
[14] = retina, Retina, OS, sodium salt, intravitreal 2.5 mg/eye, Group 4, read-out: Retina Conc. (ng/g) OS

Compound: COC(=O)N[C@@H](Cc1ccccc1)C(=O)N[C@@H](Cc1ccc(NS(=O)(=O)O)cc1)c1csc(-c2cccs2)n1 [Compound 1]
- concentration at 2 h [1]: 30.5 ng/g
- concentration at 2 h [2]: 29.5 ng/g
- concentration at 2 h [3]: 27.6 ng/g
- concentration at 4 h [1]: 26.5 ng/g
- concentration at 4 h [2]: 16.9 ng/g
- concentration at 4 h [3]: 17.5 ng/g
- concentration at 6 h [4]: 154000 ng/mL
- concentration at 24 h [5]: 29200 ng/mL
- concentration at 24 h [6]: 130000 ng/mL
- concentration at 48 h [5]: 6490 ng/mL
- concentration at 48 h [7]: 6030 ng/mL
- concentration at 48 h [6]: 66700 ng/mL
- concentration at 72 h [5]: 750 ng/mL
- concentration at 72 h [7]: 370 ng/mL
- concentration at 72 h [4]: 10800 ng/mL
- concentration at 72 h [6]: 9890 ng/mL
- concentration at 0.5 hr [8]: 2.77 ng/mL
- concentration at 0.5 hr [9]: 4.36 ng/mL
- concentration at 1 h [10]: 0.942 ng/mL
- concentration at 1 h [8]: 2.04 ng/mL
- concentration at 1 h (retina homogenate, Retina homogenate, OS, free acid, Group 3, read-out: Retina Conc. (ng/mL) OS): 0.63 ng/mL
- concentration at 1 h [9]: 3.93 ng/mL
- concentration at 2 h [10]: 0.574 ng/mL
- concentration at 2 h [8]: 1.36 ng/mL
- concentration at 2 h [9]: 1.62 ng/mL
- concentration at 4 h [8]: 1.79 ng/mL
- concentration at 1 h [11]: 0.942 ng/mL
- concentration at 1 h (retina homogenate, TABLE 16: Retina homogenate, OS, free acid, Group 3, read-out: Retina Conc. (ng/mL) OS): 0.63 ng/mL
- concentration at 2 h [11]: 0.574 ng/mL
- concentration at 6 h [12]: 431000 ng/g
- concentration at 6 h [13]: 774000 ng/g
- concentration at 24 h [12]: 321000 ng/g
- concentration at 24 h [14]: 308000 ng/g
- concentration at 24 h [13]: 356000 ng/g
- concentration at 48 h [12]: 71400 ng/g
- concentration at 48 h [14]: 66300 ng/g
- concentration at 48 h (retina, Retina, average, intravitreal 2.5 mg/eye (group 5), read-out: Avg.): 680000 ng/g
- concentration at 48 h (retina, Retina, left eye, intravitreal 2.5 mg/eye (group 5), individual animals, read-out: Conc. (ng/g) OS): 154000 ng/g
- concentration at 48 h (retina, Retina, right eye, intravitreal 2.5 mg/eye (group 5), individual animals, read-out: Conc. (ng/g) OD): 734000 ng/g
